Measurements as given in patent US5494927A, “3,5-di-tertiarybutyl-4-hydroxyphenylmethylene derivatives of 2-substituted thiazolidinones, oxazolidinones, and imidazolidinones as antiinflammatory agents” (priority 1994, dated 1996).
Where “and” joins values, the source holds several entries; their conditions need not be identical. Equal entries are not always repeated. Structures can show the parent of a compound that is named as a salt.

Key:
[1] = test system: Mycobacterium-induced rat footpad edema; test: Mycobacterium-induced rat footpad edema assay (MFE); type: in vivo; conditions: for ED40: Rattus norvegicus, swelling 72 hours after Mycobacterium injection, read-out: MFE ID40 (dose at which swelling is inhibited by 40%); for MFE % inhibition of swelling: 72 hours
Procedure: MYCOBACTERIUM-INDUCED RAT FOOTPAD EDEMA ASSAY (MFE): PROTOCOL
Mycobacterium butyricum (5 mg/mL) is suspended in paraffin oil by sonication for 10 minutes in an ice bath. Footpad edema is induced on Day 0 by injecting 0.1 mL of the Mycobacterium mixture into the left hindpaw of lightly anesthetized rats. Swelling in the injected hindpaw is determined by mercury plethysmography 72 hours after injection. Groups of rats are treated with test compounds (suspended in 0.5% hydroxypropyl methylcellulose with 0.2% Tween-80) or vehicle 1 hour before Mycobacterium injection and on Days 1 and 2. Inhibition of swelling is determined by comparing the change in hindpaw volume in compound- and vehicle-treated rats. An ID40 (the dose at which swelling is inhibited by 40%) is calculated by probit analysis or shown as the % inhibition at the dose expressed as μM, i.e., % at μM.

[2] = test system: carrageenan-induced rat foot paw edema; test: Carrageenan-induced rat foot paw edema-2 (CFE-2) assay; type: in vivo; conditions: dosed 1 hour before carrageenan, edema at 5 hours
Procedure: Carrageenan-Induced Rat Foot Paw Edema-2
CARRAGEENAN-INDUCED RAT FOOT PAW EDEMA-2 (CFE-2) ASSAY: PROTOCOL
Carageenan solution (1% w/v) is prepared by dissolving 100 mg carrageenan (Marine Colloidal Div., Springfield, N.J.) in 10 mL of sterile saline (0.9%) solution (Travenol). The solution is vortexed for 30 to 45 minutes. Animals are dosed with compound 1 hour before carrageenan challenge. Foot paw edema is induced by injecting 0.10 mL of the 1% carrageenan subcutaneously into the plantar portion of the right hind paw of each rat under light anesthesia. Initial foot paw volume is measured immediately following carrageenan challenge using mercury plethysmography (Buxco Electronics). Edema is measured 5 hours after carrageenan. The difference between the 5-hour and the initial paw volume is expressed as delta edema. The delta edema for each test group of animals is used to calculate the percent inhibition of edema achieved by the compound at the test dose compared with the vehicle control group. The data in Table I (the dose at which swelling is inhibited by the noted percent) is calculated by probit analysis for the dose at which percent inhibition occurs.

5-lipoxygenase = target: T1, 5-lipoxygenase (Rattus norvegicus, UniProt P12527); test: ARBL whole cell 5-lipoxygenase assay (LTB4 formation in RBL-1 cells); type: cell-based; conditions: for IC50: A23187 stimulated, read-out: ARBL IC50 for LTB4 inhibition; for inhibition at 10 µM: read-out: ARBL % inhibition of LT
T1 construct: host or cells: RBL-1 rat basophilic leukemia cells
T1 sequence (P12527 1-673): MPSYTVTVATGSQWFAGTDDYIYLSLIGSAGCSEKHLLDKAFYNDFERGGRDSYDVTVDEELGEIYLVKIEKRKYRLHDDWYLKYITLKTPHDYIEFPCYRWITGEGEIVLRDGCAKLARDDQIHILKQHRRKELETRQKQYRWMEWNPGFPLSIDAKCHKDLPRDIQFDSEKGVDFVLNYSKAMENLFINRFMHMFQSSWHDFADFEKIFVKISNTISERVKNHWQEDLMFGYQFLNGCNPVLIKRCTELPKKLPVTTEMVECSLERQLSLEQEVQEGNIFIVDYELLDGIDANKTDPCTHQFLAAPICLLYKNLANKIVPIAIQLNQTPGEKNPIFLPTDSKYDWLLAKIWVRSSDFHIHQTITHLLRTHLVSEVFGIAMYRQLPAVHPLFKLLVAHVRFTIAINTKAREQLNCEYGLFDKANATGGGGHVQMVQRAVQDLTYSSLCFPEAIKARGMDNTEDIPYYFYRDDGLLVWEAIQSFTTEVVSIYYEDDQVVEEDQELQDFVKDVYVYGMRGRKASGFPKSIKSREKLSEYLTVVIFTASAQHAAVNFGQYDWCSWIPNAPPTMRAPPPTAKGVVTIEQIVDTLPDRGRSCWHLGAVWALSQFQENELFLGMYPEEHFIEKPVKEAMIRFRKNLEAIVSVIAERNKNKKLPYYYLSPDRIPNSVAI
Procedure: (§1) ARBL/ARBC WHOLE CELL 5-LIPOXYGENASE AND CYCLOOXYGENASE ASSAYS
(§2) The rat basophilic leukemia cell line (RBL-1) was obtained from the American Type Culture Collection (Rockville, Md.).
(§3) Radioimmunoassay (RIA) kits of LTB4 and PGF2.sbsb.α were obtained from Amersham (Arlington Heights, Ill.) and Seragen (Boston, Me.), respectively.
(§4) All tissue culture media were obtained from GIBCO (Grand Island, N.Y.).
(§5) RBL-1 cells are grown in suspension culture in Eagle's minimum essential medium supplemented with 12% fetal bovine serum at 37° C. in an incubator supplied with air-5% carbon dioxide. Cells are harvested by centrifugation. They are washed with cold phosphate buffered saline pH 7.4 (PBS; NaCl, 7.1 g; Na2 HPO4, 1.15 g; KH2 PO4, 0.2 g; and KCl, 0.2 g/L). Cells are finally suspended in PBS containing 1.0 mM calcium at a density of 2×10^6 cells/mL. Cells are incubated with and without test agent (in DMSO) (1% DMSO is without effect on arachidonic acid metabolism) for 10 minutes at room temperature. Calcium ionophore A23187 (5 μM) is added and cells are incubated for 7 minutes at 37° C. The reaction is stopped by chilling the tubes on ice for 10 minutes. Cells are separated by centrifugation and the supernatant is stored at -20°. Aliquots (100 μL) are analyzed for LTB4 and PGF2.sbsb.α using radioimmunoassay kits as provided by the supplier.
(§6) Table I contains biochemical data obtained from this whole cell assay as IC50 s which are calculated as the amount of test compound causing 50% inhibition or % of inhibition at the named micromoles (μM) of LTB4 or PGF2.sbsb.α formation.

cyclooxygenase = test: ARBC whole cell cyclooxygenase assay (PGF2α formation in RBL-1 cells); type: cell-based, rat; conditions: for IC50: A23187 stimulated; for ARBC % inhibition of PGF2α: @ 10 μM
Procedure: as §1, §2, §3, §4, §5, §6

gastric ulcers in rats = test: Gastric ulcerogenicity (UD); type: in vivo, Wistar rats; design: key: N is not active at the dose tested; conditions: @ 200; oral, fasted rats, 6 hours
Procedure: GASTRIC ULCEROGENICITY (UD): PROTOCOL
Male outbred Wistar rats (100-250 g) are fasted for 24 hours. After fasting, test compounds are administered orally (in 2 mL/kg of 0.5% hydroxypropyl methylcellulose) and the rats are denied access to food and water for 6 more hours. The rats are then sacrificed with CO2 so that the stomachs can be removed, opened along the greater curvature, and evaluated for the presence of gastric ulcers. Results are expressed as the percent of rats with gastric ulcers at a given dose or as the UD50 (the dose which causes ulcers in 50% of the rats).

Row | Compound | IC50 (5-lipoxygenase) | IC50 (cyclooxygenase) [nM] | CFE % inhibition of edema ([2]; @ 10) [%] | ARBC % inhibition of PGF2α (cyclooxygenase) [%] | inhibition at 10 µM (5-lipoxygenase) [%] | CFE % inhibition of edema ([2]; @ 30) [%] | also measured
1 | CON(C)C1=NC(=O)/C(=C/c2cc(C(C)(C)C)c(O)c(C(C)(C)C)c2)S1 | 1700 nM | 330 | 41 | – | – | – | ED40 [1]: 13.2 mg/kg
2 | 5-[[3,5-Bis(1,1-dimethylethyl)-4-hydroxylphenyl]methylene]-2-[[2-(dimethylamino)ethyl]amino-4(5H-thiazolone, (Z)- [Example 10] | – | – | – | 87 | – | – | –
3 | CC(C)(C)c1cc(/C=C2\SC(N)=NC2=O)cc(C(C)(C)C)c1O [Example 1B, 5-[[3,5-Bis(1,1-dimethylethyl)-4-hydroxyphenyl]methylene]-2-imino-4-thiazolidinone, (Z)-, methanesulfonate (1:1) salt] | – | – | – | 80 | 100 | – | ED40 [1]: < 10 mg/kg; Gastric Ulcerogenicity UD50 (gastric ulcers in rats): N
4 | CC(C)(C)c1cc(/C=C2\SC(=NO)NC2=O)cc(C(C)(C)C)c1O [Example 4, 5-[[3,5-bis(1,1-dimethylethyl)-4-hydroxyphenyl]methylene]-2,4-thiazolidinedione, 2-oxime (Z)-] | – | – | 32 | 81 | 100 | 17 | –
5 | CC(NC1=NC(=O)C(=Cc2cc(C(C)(C)C)c(O)c(C(C)(C)C)c2)S1)C(=O)O (centres unmarked) [Example 12] | – | – | – | 55 | 100 | – | –

Continued, in another order:

Row | IC50 (5-lipoxygenase) | IC50 (cyclooxygenase) [nM] | Compound | CFE % inhibition of edema ([2]; @ 10) [%] | ARBC % inhibition of PGF2α (cyclooxygenase) [%] | inhibition at 10 µM (5-lipoxygenase) [%] | CFE % inhibition of edema ([2]; @ 30) [%] | also measured
6 | 500 nM and 800 nM | < 600 | CSC1=NC(=O)/C(=C/c2cc(C(C)(C)C)c(O)c(C(C)(C)C)c2)S1 [Example 5, 5-[[3,5-Bis(1,1-dimethylethyl)-4-hydroxyphenyl]methylene]-2,(methylthio)-4(5H)-thiazolone, (Z)-] | 36 | – | – | 47 | MFE % inhibition of swelling ([1]; @ 2): 27%; MFE % inhibition of swelling ([1]; @ 50): 23%
7 | 390 nM | 4550 | CC(C)(C)c1cc(/C=C2\SC(=NNC(N)=S)NC2=O)cc(C(C)(C)C)c1O [Example 7, 2-[5-[[3,5-Bis(1,1-dimethylethyl)-4-hydroxyphenyl]methylene]-4-oxo-2-thiazolidinylidene]hydrazine-carbothiamide, (Z)-] | – | – | – | – | –
8 | – | 160 | CC(C)(C)c1cc(C=C2SC(NC#N)=NC2=O)cc(C(C)(C)C)c1O [Example 9, [5-[[3,5-Bis(1,1-dimethylethyl)-4,hydroxyphenyl]methylene]-4,5-dihydro-4-oxo-2-thiazolyl]cyanamide] | – | – | – | 49 | MFE % inhibition of swelling ([1]; @ 3): 32%
